Results as given in PubChem BioAssay (NCI).
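Cells were grown in 96-well plates and exposed to each compound for 48 hours at five concentrations; endpoints were interpolated linearly between bracketing concentrations, or set to the highest concentration if not reached. Definition used: TGI = concentration required for complete inhibition of growth.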

What was measured:
Assay in all cases: inhibition of tumour cell growth, NCI panel, 48 h
BT-549 breast = test system: BT-549 breast
SF-295 CNS = test system: SF-295 CNS
OVCAR-5 ovarian = test system: OVCAR-5 ovarian
NCI-H226 lung = test system: NCI-H226 lung
HT29 colon = test system: HT29 colon
SW-620 colon = test system: SW-620 colon
OVCAR-3 ovarian = test system: OVCAR-3 ovarian
MDA-N = test system: MDA-N
UACC-257 melanoma = test system: UACC-257 melanoma
COLO 205 colon = test system: COLO 205 colon
HS 578T breast = test system: HS 578T breast
T-47D breast = test system: T-47D breast
DU-145 prostate = test system: DU-145 prostate
HCT-116 colon = test system: HCT-116 colon
HOP-62 NSCLC = test system: HOP-62 NSCLC
SN12C renal = test system: SN12C renal
RXF 393 renal = test system: RXF 393 renal
SF-268 CNS = test system: SF-268 CNS
U251 CNS = test system: U251 CNS
DMS 273 small cell lung = test system: DMS 273 small cell lung

Structure (SMILES) | TGI (BT-549 breast) | TGI (SF-295 CNS) | TGI (OVCAR-5 ovarian) | TGI (NCI-H226 lung) | TGI (HT29 colon) | TGI (SW-620 colon) | TGI (OVCAR-3 ovarian) | TGI (MDA-N) | TGI (UACC-257 melanoma) | TGI (COLO 205 colon) | TGI (HS 578T breast) | TGI (T-47D breast) | TGI (DU-145 prostate) | TGI (HCT-116 colon) | TGI (HOP-62 NSCLC) | TGI (SN12C renal) | TGI (RXF 393 renal) | TGI (SF-268 CNS) | TGI (U251 CNS) | TGI (DMS 273 small cell lung)
O=C(SC1=NCCN1)c1cccc2ccccc12 | > 100 µM | > 100 µM | > 100 µM | > 100 µM | > 100 µM | > 100 µM | > 100 µM | > 100 µM | 95.9 µM | > 100 µM | > 100 µM | > 100 µM | > 100 µM | > 100 µM | > 100 µM | > 100 µM | > 100 µM | > 100 µM | > 100 µM | –
N#CC1=C(c2ccccc2)C(=C2Nc3ccccc3N2)C2S/C(=C\c3ccccc3)C(=O)N2C1=N (stereo unspecified) | – | 6.21 µM | 5.84 µM | 3.73 µM | 14.3 µM | 15.8 µM | 3.37 µM | – | 15.7 µM | 20.5 µM | – | – | – | 10.9 µM | 5.1 µM | 11.4 µM | – | 6.35 µM | 5.54 µM | 4.9 µM
NC(=O)c1ncn(C2OC(CO)C(O)C2O)c1NC=O (stereo unspecified) | > 100 µM | > 100 µM | > 100 µM | > 100 µM | > 100 µM | > 100 µM | > 100 µM | > 100 µM | > 100 µM | > 100 µM | > 100 µM | > 100 µM | > 100 µM | > 100 µM | > 100 µM | > 100 µM | > 100 µM | > 100 µM | > 100 µM | –
Cc1ccc(N=NC(=Nc2ccc(Cl)cc2)c2ccc(N(CCC#N)CCC#N)cc2)cc1 | > 100 µM | > 100 µM | > 100 µM | > 100 µM | > 100 µM | > 100 µM | > 100 µM | > 100 µM | 76.1 µM | 55.6 µM | > 100 µM | > 100 µM | > 100 µM | > 100 µM | > 100 µM | > 100 µM | > 100 µM | > 100 µM | 59.5 µM | –
COc1ccc(OC)c(C2CCc3c(cnc4nc(N)nc(N)c34)C2)c1 (stereo unspecified) | 40.7 µM | 23.3 µM | 22.2 µM | 54.8 µM | 16.2 µM | 37.2 µM | 31.3 µM | 17.2 µM | 23.4 µM | 47.3 µM | 53 µM | 39.8 µM | 28.4 µM | 14.2 µM | 26.8 µM | 22 µM | 32.1 µM | 18.9 µM | 18.7 µM | –
O=C(Nc1cccc(C(F)(F)F)c1)C(=O)C1NC(=S)NC1=O (stereo unspecified) | – | > 100 µM | > 100 µM | > 100 µM | > 100 µM | 36.5 µM | > 100 µM | – | > 100 µM | > 100 µM | – | – | – | > 100 µM | > 100 µM | > 100 µM | > 100 µM | > 100 µM | – | > 100 µM
NC(=O)/C(=N\NC(=O)C[n+]1ccccc1)C1NC(=O)NC1=O (stereo unspecified) | – | > 100 µM | > 100 µM | > 100 µM | > 100 µM | > 100 µM | > 100 µM | – | > 100 µM | > 100 µM | – | – | – | > 100 µM | > 100 µM | > 100 µM | > 100 µM | > 100 µM | – | > 100 µM
COC(=O)c1ccccc1NC(=NC1CCCCCC1)NS(=O)(=O)c1ccc(C)cc1 | > 100 µM | > 100 µM | > 100 µM | > 100 µM | > 100 µM | > 100 µM | > 100 µM | > 100 µM | > 100 µM | > 100 µM | > 100 µM | > 100 µM | > 100 µM | > 100 µM | > 100 µM | > 100 µM | > 100 µM | > 100 µM | > 100 µM | –
Cc1ccc(C(c2c(O)c3ccccc3n(-c3ccccc3)c2=O)c2c(O)c3ccccc3n(-c3ccccc3)c2=O)cc1 | – | – | > 100 µM | > 100 µM | – | > 100 µM | > 100 µM | – | – | > 100 µM | – | – | – | > 100 µM | > 100 µM | > 100 µM | > 100 µM | > 100 µM | > 100 µM | > 100 µM
O=C1CC2(CCC3=C(O2)c2ccccc2NC(=O)C3)C(=O)c2ccccc2N1 (stereo unspecified) | – | > 100 µM | > 100 µM | > 100 µM | > 100 µM | > 100 µM | > 100 µM | – | – | > 100 µM | – | – | – | > 100 µM | > 100 µM | > 100 µM | > 100 µM | > 100 µM | > 100 µM | > 100 µM
O=C1C=CC2(C=C1)CCNC1=C2C(=O)c2ccccc2C1=O | – | > 100 µM | > 100 µM | > 100 µM | > 100 µM | > 100 µM | 76.7 µM | – | > 100 µM | > 100 µM | – | – | – | > 100 µM | > 100 µM | > 100 µM | > 100 µM | > 100 µM | > 100 µM | > 100 µM
OC[P+](CO)(CO)C12CC3CC(CC(C3)C1)C2 | > 100 µM | > 100 µM | > 100 µM | > 100 µM | > 100 µM | > 100 µM | > 100 µM | > 100 µM | > 100 µM | > 100 µM | > 100 µM | > 100 µM | > 100 µM | > 100 µM | > 100 µM | > 100 µM | > 100 µM | > 100 µM | > 100 µM | –
COC(=O)C1=C(OC(=O)/C(=C/c2ccccc2)c2ccc(Cl)cc2)C(C(=O)OC)[C@@]2(O)[C@@H](C(=O)OC)[C@H](C)C[C@@H]1[C@@H]2C(=O)OC (stereo partly specified) | > 100 µM | > 100 µM | > 100 µM | > 100 µM | > 100 µM | > 100 µM | > 100 µM | > 100 µM | > 100 µM | > 100 µM | > 100 µM | > 100 µM | > 100 µM | > 100 µM | > 100 µM | > 100 µM | > 100 µM | > 100 µM | > 100 µM | –
